Each block holds one compound with its values, some of them ahead of it. Bridge positions count the residues as written; N and C are the ends. Peptide text beside a SMILES is read from it.
Legend:
[1] = Inhibition of trypsin
[2] = target: Pancreatic elastase (Sus scrofa, UniProt P08419+P00772); assay: Inhibition of porcine pancreatic elastase; format: protein assay
[3] = Inhibition of subtilisin BPN
[4] = Inhibition of chymotrypsin

SMILES: CC(C)C[C@@H](NC(=O)[C@H](O)COS(=O)(=O)O)C(=O)N[C@@H]1C(=O)N[C@@H](CCCNC(=N)N)C(=O)N[C@H]2CC[C@@H](O)N(C2=O)[C@@H](CC(C)C)C(=O)N(C)[C@@H](Cc2ccc(O)cc2)C(=O)N[C@@H](C(C)C)C(=O)O[C@@H]1C
Ki [1]: 9 nM

IC50 [2]: 260 nM
SMILES: C/C=C1\NC(=O)[C@H]2NC(=O)[C@@H](NC(=O)C(C)C)CCCNC(=O)Nc3cc(O)c(O)cc3C[C@@H](C(=O)N[C@@H](C(C)C)C(=O)O[C@H]2C)N(C)C(=O)[C@H](Cc2ccccc2)N2C(=O)[C@H](CC[C@H]2O)NC1=O

Ki [3]: 1.5 nM
Ki [4]: 300 nM
SMILES: CSCC[C@@H]1NC(=O)[C@@H](NC(=O)[C@H](C)NC(=O)[C@@H](N)Cc2ccccc2)[C@@H](C)OC(=O)C[C@@H]2NC(=O)[C@H](COC(=O)C[C@@H](C(=O)N[C@@H](CCC(=O)O)C(=O)O)NC(=O)[C@H](CO)NC2=O)NC(=O)[C@@H]2CCCN2C(=O)[C@H](Cc2ccc(O)cc2)NC(=O)[C@H](CCCNC(=N)N)NC1=O [MARINOSTATIN] (H-FATMRYPSDSDE-OH; ester 3-9, 8-11)

IC50 [2]: 160 nM
SMILES: CCCC(=O)N[C@@H](C)C(=O)N[C@H](C(=O)N[C@@H]1C(=O)N[C@@H](CC(C)C)C(=O)N[C@@H]2CC[C@H](O)N(C2=O)[C@@H](C(C)O)C(=O)N[C@@H](Cc2ccc(O)c(Cl)c2)C(=O)N[C@@H](C(C)C)C(=O)O[C@H]1C)[C@@H](C)O (stereo not given in full) [SCYPTOLIN A]

— ChEMBL document CHEMBL1140630, “Resisting degradation by human elastase: commonality of design features shared by 'canonical' plant and bacterial macrocyclic protease inhibitor scaffolds” (Bioorg Med Chem, 2007)
